Results on five compounds are retold here after patent publication US8680014B2, “Methods for improving fruit production and fruit quality” (Washington State University Research Foundation, priority 2010, dated 2014).

“Also recorded” adds a separate entry of the source. Marks after values point to notes of the source that are not given here.

For one assay, the system named is ‘Fuji’ apple trees. Description: BABA at different bud development stages; branches in programmable freeze chamber five days later. The class given is in vivo, apple (Malus domestica). Particulars: treated 5 days before cold exposure; all developmental stages, except for full opened flowers; compared to control. The method, then: BABA was also applied to ‘Fuji’ apple trees at different bud development stages. Five days later, treated and untreated (control) branches were collected and placed in a programmable freeze chamber. Flowers killed were evaluated as described above. BABA decreased the percentage of flowers killed as compared to control at all developmental stages, except for full opened flowers (FIG. 2).

Another assay concerns plum cv. ‘PP7524-7’. Description: BABA application in the spring 4-7 days prior to frost exposure. The class given is in vivo. Particulars: application 4-7 days prior to frost; following spring frost damage. From the text:
Finally, BABA application in the spring 4-7 days prior to frost exposure increased fruit set in plum cv. ‘PP7524-7’ following spring frost damage (FIG. 5).

For assay [1], the system named is sweet cherry cultivar ‘Bing’. Description: Autumn application of BABA, natural frost damage the following spring. The class given is in vivo, sweet cherry (Prunus avium). From the text: (§1) Application of BABA to sweet cherry cultivars ‘Bing,’ ‘Chelan,’ and ‘Van’ in autumn decreased the percentage of flowers killed after natural frost damage the following spring (FIG. 3). […] Bing after spring frost damage (FIG. 4).

For assay [2], the system named is sweet cherry cultivar ‘Van’. The description is as above. The class given is in vivo, sweet cherry (Prunus avium).
Excerpt: as §1

Assay [3] deals with sweet cherry cultivar ‘Chelan’. The description is as above. Format: in vivo, sweet cherry (Prunus avium).
Excerpt: as §1

The test system of assay [4] is Sweet cherry cv. ‘Bing’ trees. Description: BABA spray in the field; flower fate of limbs in programmable freeze chamber; fruit set, fruit size, leaf area, leaf chlorophyll on other limbs. Format: in vivo, sweet cherry (Prunus avium). The method, then:
Sweet cherry cv. ‘Bing’ trees were sprayed in the field with BABA and the fate of flowers from randomly selected sample limbs placed in a programmable freeze chamber was evaluated. Random limbs were removed from the freeze chamber within 10 minutes of reaching selected air temperatures, and were left at room temperature for 1 hour. Pistil/ovary survival was then assessed visually on every flower. Flowers with healthy green stylar and ovary tissue were rated as live. Flowers with discolored (for example, brown) stylar or ovary tissues were rated as dead. Fruit set, fruit size, average leaf area, and leaf chlorophyll content index were evaluated on other limbs of the treated trees.

The subject of assay [5] is sweet cherry cv ‘Bing’ on ‘Gisela® 1’ rootstock. Briefly: Experiment 1: limb trial of PCa and GAs alone or in combination, applied 30 days after anthesis. The class given is in vivo, sweet cherry (Prunus avium). The note with it: for Firmness / Fruit diameter / Fruit weight / TSS: applied at 30 days after anthesis, PCa 150 mg/L, GAs 30 mg/L, at harvest. The method, then: (§2) A limb trial was conducted to evaluate effects of bioactive gibberellins (GA), prohexadione-calcium (PCa), or combinations applied before harvest on fruit quality of sweet cherry. The most efficacious treatments were utilized in a larger scale trial to investigate their effects on the whole tree scale and postharvest characteristics of fruit. Twelve-year-old sweet cherry cv ‘Bing’ on ‘Gisela® 1’ rootstock was selected for both experiments and trained to a central leader architecture. Both trials were carried out at Washington State University Roza farm, Prosser, Wash., USA (N 46.2°, W 119.7°).
Three limbs with uniform vigor were selected from each of 10 trees. Treatments were applied to the limbs randomly spread across ten trees at 30 days after anthesis, approximately coinciding with the onset of pit hardening (stage II of fruit development) in ‘Bing’. The experiment consisted of 10 treatments, including water (the untreated control) and PCa at 150 mg/L. Bioactive GA1, GA3, and GA4/7 (70:30 GA4:GA7) were applied as a foliar spray at 30 mg/L alone or in combination with PCa at 150 mg/L. In addition, the combination of GA3 and GA4/7 at 30 mg/L was applied, or in combination with PCa at 150 mg/L. PCa was the commercial product Apogee® (27.5% PCa; BASF Corp., Research Triangle Park, N.C.) and all bioactive GAs (purity >90%) were purchased from OlChemIm Ltd. (Olomouc, Czech Republic). Each treatment was made with a pressurized handgun sprayer to entire limbs, ceasing at the first runoff.
Twenty fruit per treatment were randomly selected and flagged for monitoring fruit growth by measuring fruit equatorial diameter and height weekly after treatment. All current-season shoots on treated limbs were measured weekly to investigate treatment effects on shoot growth. Harvest timing was determined as the day when the majority of fruit had achieved commercial maturity, based on exocarp color. At harvest, all fruit on treated limbs were harvested and transported to the laboratory for fruit quality analysis. Floral bud density on the treated limbs was assessed by counting all spurs and the number of reproductive buds per spur.
All fruit from each limb in Experiment 1 and sub-samples from Experiment 2 were weighed individually and fruit size distribution was calculated according to fruit weight. Color sorting was conducted manually according to the color comparators developed by CTIFL (Centre Technique Interprofessionnel des Fruit et Legumes, France), which categorize cherry color into 8 levels from Green, CTIFL 1 to CTIFL 7. Fruit number in each category was counted and color distribution was assessed. Subsequently, all fruit were analyzed for firmness and row size measurement with a FirmTech 2 (BioWorks, Inc, Wamego, Kans.) at room temperature. Then, 25 fruit were randomly selected and 5 groups of 5 fruit were mixed for soluble solids content, pH and titratable acidity measurement. Fruit soluble solids were measured using a digital refractometer (Atago, Japan). Approximately 0.5 mL of juice was dropped directly onto the surface of the refractometer and the measurement immediately taken. Juice pH and titratable acidity were measured with a Mettler DL12 Titrator (Mettler-Toledo, Columbus, Ohio).
All trials were established as randomized complete-block designs. All data were subjected to analysis of variance using the General Linear Models (GLM) program of the SAS statistical analysis package (SAS Institute, Cary, N.C.).

Assay [6] shares this test system. Description: Experiment 2: whole tree trial of PCa alone or with GA3 or GA4/7, applied 30 (FS) or 37 (SS) days after anthesis; fruit quality, storability, sensory analysis. Format: in vivo, sweet cherry (Prunus avium). The method, then:
as §2
Experiment 2 included treatments at the whole tree level. Applications of GA3 or GA4/7 (70:30 GA4:GA7) were made to entire trees at 30 mg/L in combination with PCa at 150 mg/L. PCa (150 mg/L) alone was also applied and an untreated control treatment was included. To investigate the role of application timing of plant growth regulators, all treatments were applied at 30 (first spray (FS)) or 37 days after anthesis (second spray (SS)). In this experiment, 24 trees in the same orchard as those in Experiment 1 were selected for whole tree treatment and assigned randomly into one of two 12-tree groups for the timing study. Treatments were then randomly assigned to each of three trees per application timing. Treatments were applied to entire trees by pressurized handgun sprayer to the point of first runoff. All applications were completed in the morning between 0800 and 1100, and applied on days with little or no wind. To prevent spray drift onto neighboring experimental units, all the trees were selected in the same row and 2-3 trees were selected as ‘border’ trees between experimental units.
Twenty fruit per treatment were marked for weekly fruit size measurement, and six current terminal shoots were selected for monitoring shoot growth weekly after treatment. […] Whole tree yield was determined at harvest, in the field, with a portable digital scale. The effect of treatment on total yield per tree (kg tree^−1) and the yield of large fruit (29.8 mm+) (kg tree^−1) was assessed. […]
All fruit from each limb in Experiment 1 and sub-samples from Experiment 2 were weighed individually and fruit size distribution was calculated according to fruit weight. […] Fruit number in each category was counted and color distribution was assessed. Subsequently, all fruit were analyzed for firmness and row size measurement with a FirmTech 2 (BioWorks, Inc, Wamego, Kans.) at room temperature. […] Fruit soluble solids were measured using a digital refractometer (Atago, Japan). […] Juice pH and titratable acidity were measured with a Mettler DL12 Titrator (Mettler-Toledo, Columbus, Ohio). […]

For a further assay, the system named is sweet cherry cv. ‘Bing’. Briefly: CPA applied at full bloom; fruit set and fruit size at harvest. Format: in vivo, sweet cherry (Prunus avium). The method, then:
Plant growth regulators were applied to limbs of sweet cherry cv. ‘Bing’ at full bloom when essentially all flowers were open. Fruit set was recorded as a percent of available flowers from flower counts made prior to application and fruit counts made just prior to harvest. Fruit set in trees treated with 4-chlorophenoxyacetic acid (CPA) at 10 or 30 ppm was higher than untreated control in both small and large scale trials (FIG. 18). […] (Table 2).

Assay [7] concerns sweet cherry cultivar ‘8011-3’. Described as above. The class given is in vivo, sweet cherry (Prunus avium). The note with it: 30 ppm CPA at full bloom.
The subject of assay [8] is sweet cherry cultivar ‘Tieton’. The assay is described as above. The class given is in vivo, sweet cherry (Prunus avium). The note with it: 30 ppm CPA at full bloom.
Setting [9] is: BABA at both concentrations (100 and 500 ppm), compared to control.

For `CC(N)CC(=O)O` (racemic) [BABA, DL-β-aminobutyric acid], the “percentage of flowers killed” value in the assay on ‘Fuji’ apple trees is listed as “decreased”; in assay [1] (natural frost the following spring) it was “decreased”; in [2], “decreased”; in assay [3], “decreased”; in assay [4] (100 ppm BABA, −3.5° C. and −4.5° C., compared to control (untreated) trees) it was “decreased”; in assay [4] (500 ppm BABA, compared to control), “decreased”. The fruit set entry (with plum cv. ‘PP7524-7’; in [4] (setting [9])) was “increased” throughout. Also, in [1] (after spring frost damage), the pistil survival result is “increased”. Also, in assay [4] (setting [9]), the average leaf area result was “increased”. The fruit size entry in assay [4] (setting [9]) is on record as “increased”. The “leaf chlorophyll content index” value in assay [4] (setting [9]) was “increased”.
Consider `C=C1C[C@]23C[C@@]1(O)CC[C@H]2[C@@]12C=C[C@H](O)[C@@](C)(C(=O)O1)[C@H]2[C@@H]3C(=O)O` [GA3, gibberellin A3], for which, in [5], the Firmness was 316.9^a g/mm, the Fruit diameter is given as 26.49^bc mm, the Fruit weight is listed as 8.23^cd g and the TSS is on record as 22.23^a Brix.
For `CCC(=O)C1=C(O)CC(C(=O)O)CC1=O` (stereo not shown) [PCa, calcium 3-oxido-4-propionyl-5-oxo-cyclohexene carboxylate], the “fruit categorized as healthy after storage” value in assay [6] (30 days at 4° C., spray timing not stated, 5% for untreated trees) was below 10%. The “increase in fruit in the ≧10 g category compared to the control” value in [6] (both first and second spray timings) is reported as 15%. Moreover, the “percentage of fruit with green and turgid pedicels after storage” value in assay [6] (first spray treatments, control 30%) was determined as 24%. In addition, the “shoot growth / vegetative extension growth” value in assay [6] (single spray, irrespective of timing, compared with the control and PCa+GAs) is on record as “reduced; also recorded: reductions”. Also, in [5], the Firmness is 278.3^c g/mm, the Fruit diameter was 24.75^f mm, the Fruit weight is on record as 7.26^f g and the TSS is listed as 19.18^cd Brix. Moreover, in assay [5] (limb trial, single application at 30 days after anthesis), the “effect on fruit weight / fruit size compared with the untreated control” value is “no positive effect”. Besides, the “length of current season extension shoots relative to untreated” value in assay [5] (single application, after terminal bud set (FIG. 8)) was “less than half the length”.
In the case of `O=C(O)COc1ccc(Cl)cc1` [4-CPA, 4-chlorophenoxyacetic acid], the “fruit set compared with untreated control” value in the assay with sweet cherry cv. ‘Bing’ (CPA at 10 or 30 ppm at full bloom, small and large scale trials (FIG. 18)) is “higher”. In addition, the “Fruit Set (%)” value stood at 58.0% with sweet cherry cv. ‘Bing’ (‘Bing’, 30 ppm CPA applied to the flowers at full bloom, untreated 30.0); 16.0% in assay [7] (untreated 7.0); 35.0% in assay [8] (untreated 26.0). Also, the “Average fruit size” value with sweet cherry cv. ‘Bing’ (‘Bing’, 30 ppm CPA at full bloom, at harvest, untreated 7.3) is 8.4 g; in assay [7] (at harvest, untreated 10.5) it was 13.6 g; in assay [8] (at harvest, untreated 7.2), 8.6 g.
Take `C=C1C[C@]23C[C@@]1(O)CC[C@H]2[C@@]12CC[C@H](O)[C@@](C)(C(=O)O1)[C@H]2[C@@H]3C(=O)O` [GA1, gibberellin A1]: in assay [5], the Firmness is on record as 280.2^c g/mm, the Fruit diameter is 26.52^bc mm, the Fruit weight is recorded as 8.44^bc g and the TSS is on record as 20.84^b Brix.
